Measurements from the CheMixHub ionic liquid set.

Assay: xn = mol fraction of the nth substance listed

CCC[n+]1ccn(C)c1.COS(=O)(=O)[O-] + O
viscosity [mPa·s], 101 kPa
Details | 298.15 K | 308.15 K | 318.15 K | 328.15 K
x1 = 0.000281 | 0.799 | 0.699 | 0.62 | 0.566
x1 = 0.0007725 | 0.805 | 0.709 | 0.638 | 0.57
x1 = 0.0009344 | 0.814 | 0.717 | 0.642 | 0.575
x1 = 0.001368 | 0.819 | 0.727 | 0.647 | 0.58
x1 = 0.001628 | 0.813 | 0.735 | 0.66 | 0.588
x1 = 0.002412 | 0.829 | 0.758 | 0.658 | 0.602
x1 = 0.004829 | 0.838 | 0.796 | 0.702 | 0.647
x1 = 0.007746 | 0.886 | 0.847 | 0.757 | 0.701
x1 = 0.009565 | 0.931 | 0.888 | 0.81 | 0.736
x1 = 0.01237 | 0.999 | 0.93 | 0.865 | 0.79
x1 = 0.01639 | 1.113 | 1.021 | 0.963 | 0.878
x1 = 0.01912 | 1.182 | 1.072 | 1.017 | 0.953
x2 = 0.9709 | 1.48 | 1.268 | 1.247 | 1.122
x2 = 0.9746 | 1.387 | 1.205 | 1.167 | 1.054

CC(O)C(=O)[O-].CCC[N+]1(C)CCCCC1 + CC#N
298 K, 101 kPa
Details | electrical conductivity [S/m]
x2 = 0.77 | 2.16
x2 = 0.823 | 2.56
x2 = 0.832 | 2.64
x2 = 0.838 | 2.76
x2 = 0.846 | 2.85
x2 = 0.851 | 2.85
x2 = 0.859 | 2.88
x2 = 0.863 | 2.92
x2 = 0.869 | 2.97
x2 = 0.872 | 2.98
x2 = 0.877 | 2.98
x2 = 0.881 | 3.01
x2 = 0.885 | 3.03
x2 = 0.888 | 3.06
x2 = 0.891 | 3.04
x2 = 0.893 | 3.06
x2 = 0.897 | 3.09
x2 = 0.9 | 3.09
x2 = 0.907 | 3.09
x2 = 0.909 | 3.09
x2 = 0.92 | 3.04
x2 = 0.933 | 2.92
x2 = 0.952 | 2.68

CO + CCCC[n+]1ccc(C)cc1.F[B-](F)(F)F
Details | viscosity [mPa·s]
298.15 K, 101 kPa, x1 = 1 | 0.538

CC[n+]1ccn(C)c1.O=S(=O)([N-]S(=O)(=O)C(F)(F)F)C(F)(F)F + O=S(=O)([N-]S(=O)(=O)C(F)(F)F)C(F)(F)F.[Li+]
101 kPa, x1 = 1
Details | electrical conductivity [S/m] | viscosity [mPa·s]
288.15 K | 0.611 | –
298.15 K | 0.883 | –
313.15 K | – | 19.26
333.15 K | 2.18 | –
343.15 K | – | 9.46

C[N+](CCO)(CCO)CCOCCO.[Cl-] + NC(N)=O
100 kPa, x1 = 0.5
Details | viscosity [mPa·s]
328.15 K | 560
343.15 K | 221
348.15 K | 169
353.15 K | 131

CCCC[n+]1ccn(C)c1.[I-] + F[B-](F)(F)F.[Li+]
Details | electrical conductivity [S/m]
308.15 K, 101 kPa, x2 = 0 | 0.0286

CC(O)C(=O)[O-].C[N+](C)(C)CCO + CCCO + O
100 kPa, x1 = 0.00408, x2 = 0.5431
Details | viscosity [mPa·s]
288.15 K | 3.551
298.15 K | 2.585
308.15 K | 1.943

CCCC[n+]1ccn(C)c1.[I-] + [I-].[Li+] + O
viscosity [mPa·s], 100 kPa
Details | x1 = 0.05, x2 = 0.05 | x1 = 0.4, x2 = 0.05
198.25 K | – | 1.3e+08
198.65 K | 15000 | –
203.85 K | 6900 | 1.32e+07
208.75 K | 3700 | –
209.15 K | – | 2900000
213.95 K | 1900 | 490000
218.85 K | 1600 | 180000
224.05 K | 1200 | 68000
228.55 K | – | 29000
228.95 K | 810 | –
233.05 K | 470 | –
234.15 K | – | 15000
236.45 K | 320 | –
238.25 K | – | 8000
241.25 K | 220 | –
243.85 K | – | 3700
246.15 K | 150 | –
248.75 K | 11 | –
249.15 K | – | 2500
253.95 K | 9.7 | 1600
259.25 K | – | 1000
259.65 K | 7.7 | –
263.4 K | 6.1 | –
264.1 K | – | 600
268.6 K | – | 440
268.9 K | 5.2 | –
273 K | – | 280
274 K | 4.5 | –
278.6 K | 4.5 | –
279.1 K | – | 180
283.55 K | 3.9 | 120
288.45 K | 3.6 | –
289.15 K | – | 82
293.65 K | 3.1 | 65
298.55 K | 2.6 | 41

CC[n+]1ccn(C)c1.O=S(=O)([N-]S(=O)(=O)C(F)(F)F)C(F)(F)F + F[P-](F)(F)(F)(F)F.[Li+]
101 kPa, x1 = 1
Details | electrical conductivity [S/m]
288.15 K | 0.611
298.15 K | 0.883
333.15 K | 2.18

O=P([O-])(O)O.[Na+] + CCCCCCCCCCCC[N+](C)(C)C.[Br-] + O
298.15 K, 101 kPa
Details | electrical conductivity [S/m]
x2 = 0, x1 = 0.0001802 | 0.1015
x2 = 0, x1 = 0.001799 | 0.7566
x2 = 3.79e-06, x1 = 0.0001802 | 0.1031
x2 = 5.64e-06, x1 = 0.001799 | 0.7559
x2 = 7.76e-06, x1 = 0.0001802 | 0.1049
x2 = 1.11e-05, x1 = 0.001799 | 0.7567
x2 = 1.317e-05, x1 = 0.0001802 | 0.1075
x2 = 1.858e-05, x1 = 0.0001802 | 0.1101
x2 = 1.893e-05, x1 = 0.001799 | 0.7581
x2 = 2.345e-05, x1 = 0.0001802 | 0.1124
x2 = 2.603e-05, x1 = 0.001799 | 0.7597
x2 = 3.427e-05, x1 = 0.0001802 | 0.1175
x2 = 3.55e-05, x1 = 0.001799 | 0.7617
x2 = 4.401e-05, x1 = 0.0001802 | 0.1222
x2 = 4.714e-05, x1 = 0.001799 | 0.7635
x2 = 5.411e-05, x1 = 0.0001802 | 0.127
x2 = 5.843e-05, x1 = 0.001799 | 0.766
x2 = 6.457e-05, x1 = 0.0001802 | 0.132
x2 = 6.953e-05, x1 = 0.001799 | 0.7685
x2 = 7.467e-05, x1 = 0.0001801 | 0.1368
x2 = 8.082e-05, x1 = 0.001799 | 0.771
x2 = 8.477e-05, x1 = 0.0001801 | 0.1416
x2 = 9.228e-05, x1 = 0.001799 | 0.7738
x2 = 9.541e-05, x1 = 0.0001801 | 0.1467
x2 = 0.0001034, x1 = 0.001799 | 0.777
x2 = 0.0001055, x1 = 0.0001801 | 0.1516
x2 = 0.0001145, x1 = 0.001799 | 0.7803
x2 = 0.0001154, x1 = 0.0001801 | 0.1563
x2 = 0.0001255, x1 = 0.0001801 | 0.161
x2 = 0.0001258, x1 = 0.001799 | 0.7836
x2 = 0.0001363, x1 = 0.001799 | 0.7867
x2 = 0.0001371, x1 = 0.0001801 | 0.1667
x2 = 0.0001469, x1 = 0.001798 | 0.7899
x2 = 0.0001488, x1 = 0.0001801 | 0.1723
x2 = 0.0001578, x1 = 0.001798 | 0.793
x2 = 0.0001602, x1 = 0.0001801 | 0.1777
x2 = 0.0001687, x1 = 0.001798 | 0.7962
x2 = 0.0001715, x1 = 0.0001801 | 0.1831
x2 = 0.0001796, x1 = 0.001798 | 0.7996
x2 = 0.0001829, x1 = 0.0001801 | 0.1884
x2 = 0.0001905, x1 = 0.001798 | 0.8028
x2 = 0.0001941, x1 = 0.0001801 | 0.1937
x2 = 0.0002011, x1 = 0.001798 | 0.8057
x2 = 0.0002054, x1 = 0.0001801 | 0.1991
x2 = 0.0002117, x1 = 0.001798 | 0.8081
x2 = 0.0002166, x1 = 0.0001801 | 0.2043
x2 = 0.0002224, x1 = 0.001798 | 0.8103
x2 = 0.0002276, x1 = 0.0001801 | 0.2096
x2 = 0.0002326, x1 = 0.001798 | 0.8125
x2 = 0.0002384, x1 = 0.0001801 | 0.2146
x2 = 0.0002431, x1 = 0.001798 | 0.8147
x2 = 0.0002492, x1 = 0.0001801 | 0.2196
x2 = 0.0002537, x1 = 0.001798 | 0.8169
x2 = 0.0002601, x1 = 0.0001801 | 0.2239
x2 = 0.0002641, x1 = 0.001798 | 0.8191
x2 = 0.0002692, x1 = 0.0001801 | 0.2266
x2 = 0.0002744, x1 = 0.001798 | 0.8212
x2 = 0.0002795, x1 = 0.0001801 | 0.2291
x2 = 0.0002848, x1 = 0.001798 | 0.8234
x2 = 0.0002918, x1 = 0.0001801 | 0.2316
x2 = 0.0003062, x1 = 0.0001801 | 0.234
x2 = 0.0003222, x1 = 0.0001801 | 0.2367
x2 = 0.0003394, x1 = 0.0001801 | 0.2394
x2 = 0.000366, x1 = 0.0001801 | 0.2432
x2 = 0.0003922, x1 = 0.0001801 | 0.2467

CC[n+]1ccn(C)c1.O=S(=O)([N-]S(=O)(=O)C(F)(F)F)C(F)(F)F + CC1COC(=O)O1
101.3 kPa
Details | viscosity [mPa·s]
288.15 K, x1 = 0.7977 | 34.2
293.15 K, x1 = 0.3007 | 8.42
293.15 K, x1 = 1 | 39.06
298.15 K, x1 = 0.2127 | 5.58
298.15 K, x1 = 0.7004 | 20.1
303.15 K, x1 = 0.1 | 3.358
303.15 K, x1 = 0.4227 | 8.98
303.15 K, x1 = 0.7601 | 18.97
308.15 K, x1 = 0.4227 | 7.89
308.15 K, x1 = 0.6015 | 12.59
308.15 K, x1 = 0.7601 | 16.83
308.15 K, x1 = 1 | 23.19
313.15 K, x1 = 0.7601 | 14.7
313.15 K, x1 = 0.8098 | 16.11
313.15 K, x1 = 1 | 19.94
318.15 K, x1 = 0.3007 | 4.614
318.15 K, x1 = 0.6015 | 9.46
318.15 K, x1 = 0.7004 | 11.6
318.15 K, x1 = 0.9533 | 16.99
323.15 K, x1 = 0.6015 | 8.33
328.15 K, x1 = 0.2127 | 3.014
328.15 K, x1 = 0.4227 | 5.07
328.15 K, x1 = 0.5146 | 6.11
328.15 K, x1 = 0.7601 | 9.85
328.15 K, x1 = 0.7977 | 10.52
333.15 K, x1 = 0.1 | 1.979
333.15 K, x1 = 0.3007 | 3.477
333.15 K, x1 = 0.658 | 7.31
333.15 K, x1 = 0.7004 | 7.92
338.15 K, x1 = 0.1 | 1.838
343.15 K, x1 = 0.5146 | 4.595
343.15 K, x1 = 0.7601 | 6.96
343.15 K, x1 = 0.7977 | 7.41
343.15 K, x1 = 0.8098 | 7.59
348.15 K, x1 = 0.1 | 1.599
348.15 K, x1 = 0.2127 | 2.203
348.15 K, x1 = 0.658 | 5.39
